Assay results taken from the supplement of paper PMC10307832.

Tests used:
Assay in all cases: relative viability (nuclei count vs DMSO), 5 days (fraction); higher = more cells survive
Trametinib + Linsitinib = compound: CC(=O)Nc1cccc(-n2c(=O)n(C3CC3)c(=O)c3c(Nc4ccc(I)cc4F)n(C)c(=O)c(C)c32)c1 [Trametinib] + C[C@]1(O)C[C@@H](c2nc(-c3ccc4ccc(-c5ccccc5)nc4c3)c3c(N)nccn32)C1 [Linsitinib] (partner 1 µM)
In short: (§1)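 Dosing by pin tool came one day after lung cancer cell lines were seeded in 1536-well plates, using either one drug or a fixed anchor-drug dose plus five library-drug doses (not always all listed) in √10 steps. After 5 days, nuclei were counted on 4× images. Relative viability is treated-well nuclei count divided by vehicle-well nuclei count, and values are medians of duplicate plates.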

Trametinib + Olaparib = compound: CC(=O)Nc1cccc(-n2c(=O)n(C3CC3)c(=O)c3c(Nc4ccc(I)cc4F)n(C)c(=O)c(C)c32)c1 [Trametinib] + O=C(c1cc(Cc2n[nH]c(=O)c3ccccc23)ccc1F)N1CCN(C(=O)C2CC2)CC1 [Olaparib] (partner 8 µM)
In short: as §1

[1] = compound: CN1C=C(C2=CC=CC=C21)/C=C\3/C4=C(C=CC=N4)NC3=O + CC(C)C[C@H](NC(=O)[C@H](Cc1ccccc1)NC(=O)c1cnccn1)B(O)O [Bortezomib] (partner 0.002 µM)
In short: as §1

[2] = compound: CN1C=C(C2=CC=CC=C21)/C=C\3/C4=C(C=CC=N4)NC3=O + Nc1ncn([C@H]2C[C@H](O)[C@@H](CO)O2)c(=O)n1 [Decitabine] (partner 2 µM)
In short: as §1

Row | Cell Line | relative viability (Trametinib + Linsitinib; first compound 0.0025 µM) | relative viability (Trametinib + Linsitinib; first compound 0.007906 µM) | relative viability (Trametinib + Linsitinib; first compound 0.025 µM) | relative viability (Trametinib + Linsitinib; first compound 0.07906 µM) | relative viability (Trametinib + Linsitinib; first compound 0.25 µM) | relative viability (Trametinib + Olaparib; first compound 0.0025 µM) | relative viability (Trametinib + Olaparib; first compound 0.007906 µM) | relative viability (Trametinib + Olaparib; first compound 0.025 µM) | relative viability (Trametinib + Olaparib; first compound 0.07906 µM) | relative viability (Trametinib + Olaparib; first compound 0.25 µM) | relative viability ([1]; first compound 0.02 µM) | relative viability ([1]; first compound 0.06325 µM) | relative viability ([1]; first compound 0.2 µM) | relative viability ([1]; first compound 0.6325 µM) | relative viability ([1]; first compound 2 µM) | relative viability ([2]; first compound 0.02 µM) | relative viability ([2]; first compound 0.06325 µM) | relative viability ([2]; first compound 0.2 µM) | relative viability ([2]; first compound 0.6325 µM) | relative viability ([2]; first compound 2 µM)
1 | NCI-H520 | 0.947 | 1.02 | 1.02 | 0.905 | 0.664 | 0.353 | 0.317 | 0.355 | 0.306 | 0.302 | 0.6 | 0.432 | 0.653 | 0.578 | 0.667 | 0.46 | 0.492 | 0.536 | 0.473 | 0.52
2 | NCI-H596 | 1.04 | 0.851 | 0.769 | 0.774 | 0.76 | 0.664 | 0.594 | 0.589 | 0.516 | 0.463 | 0.838 | 1.17 | 1.03 | 1.07 | 1.02 | 1.03 | 1.06 | 0.958 | 1.88 | 1.81
3 | NCI-H647 | 1.07 | 0.803 | 0.835 | 0.933 | 0.58 | 0.481 | 0.362 | 0.491 | 0.452 | 0.218 | 1.28 | 0.793 | 0.712 | 0.709 | 0.958 | 0.391 | 0.314 | 0.384 | 0.327 | 0.349
4 | NCI-H650 | 1.08 | 0.93 | 0.861 | 0.787 | 0.456 | 0.444 | 0.434 | 0.568 | 0.649 | 0.542 | 0.702 | 0.859 | – | 0.725 | 0.879 | 0.316 | 0.338 | – | 0.293 | 0.188
5 | NCI-H661 | 0.537 | 0.499 | 0.567 | 0.392 | 0.403 | 0.718 | 0.704 | 0.633 | 0.637 | 0.564 | 0.775 | 0.735 | 0.691 | 0.727 | 0.878 | 0.594 | 0.562 | 0.496 | 0.564 | 0.555
6 | NCI-H727 | 0.21 | 0.164 | 0.104 | 0.144 | 0.155 | 0.714 | 0.617 | 0.565 | 0.363 | 0.398 | 0.923 | 0.564 | 0.646 | 1.24 | 1.32 | 0.935 | 0.886 | 0.669 | 0.979 | 0.829
7 | NCI-H838 | 0.912 | 0.867 | – | 0.754 | 0.528 | 0.703 | 0.675 | 0.622 | 0.674 | 0.587 | 0.79 | 0.769 | 0.835 | 0.785 | 0.818 | 0.431 | 0.447 | 0.446 | 0.433 | 0.449
8 | NCI-H1355 | 0.737 | 0.605 | 0.375 | 0.433 | 0.352 | 0.663 | 0.686 | 0.552 | 0.48 | 0.39 | 1.1 | 1.16 | 1.03 | 0.958 | 0.983 | 0.342 | 0.375 | 0.374 | 0.317 | 0.324
9 | NCI-H1437 | 0.996 | 0.412 | 0.294 | 0.209 | 0.176 | 0.601 | 0.518 | 0.446 | 0.422 | 0.443 | 0.629 | 0.613 | 0.475 | 0.511 | 0.54 | 0.593 | 0.591 | 0.527 | 0.664 | 0.668
10 | NCI-H1651 | 0.969 | 0.763 | 0.888 | 0.835 | 0.659 | 0.197 | 0.178 | 0.182 | 0.179 | 0.161 | 0.811 | 1.03 | 0.931 | 0.885 | 1.06 | 0.649 | 0.613 | 0.5 | 0.643 | 0.578
11 | NCI-H1666 | 0.56 | 0.524 | 0.426 | 0.571 | 0.388 | 0.735 | 0.699 | 0.706 | 0.755 | 0.726 | 1 | 0.77 | 0.542 | 0.692 | 0.709 | 0.7 | 0.701 | 0.591 | 0.764 | 0.658
12 | NCI-H1734 | 0.845 | 0.739 | – | 0.788 | 0.613 | 0.632 | 0.578 | – | 0.59 | 0.431 | 0.91 | 0.851 | – | 0.859 | 1.02 | 0.482 | 0.535 | – | 0.515 | 0.499
13 | NCI-H1755 | 0.847 | 0.82 | 0.764 | 0.847 | 0.801 | 0.849 | 0.826 | 0.804 | 0.807 | 0.742 | 0.953 | 0.889 | 0.868 | 0.953 | 0.87 | 0.668 | 0.758 | 0.674 | 0.675 | 0.691
14 | NCI-H1792 | 0.489 | 0.39 | 0.363 | 0.234 | 0.164 | 0.479 | 0.415 | 0.348 | 0.186 | 0.244 | 0.784 | 0.977 | 0.835 | – | 0.889 | 0.439 | 0.648 | 0.645 | 0.497 | 0.511
15 | NCI-H1915 | 1.14 | 1.05 | 0.671 | 0.674 | 0.278 | 0.266 | 0.21 | 0.198 | 0.168 | 0.144 | 0.913 | 1 | 0.962 | 1.11 | 1.15 | 0.242 | 0.258 | 0.287 | 0.573 | 0.53
16 | NCI-H1975 | 0.93 | 0.897 | 0.603 | 0.384 | 0.38 | 0.816 | 0.633 | 0.566 | 0.376 | 0.322 | 0.431 | 0.36 | 0.344 | 0.322 | 0.317 | 0.396 | 0.277 | 0.356 | 0.363 | 0.347
17 | NCI-H1993 | 0.774 | 0.752 | 0.719 | 0.723 | 0.745 | 0.961 | 0.834 | 0.789 | 0.542 | 0.537 | 0.916 | 1.09 | 1.09 | 0.691 | 0.697 | 0.532 | 0.589 | 1.3 | 0.578 | 0.529
18 | NCI-H2009 | 0.916 | 0.717 | 0.483 | 0.472 | 0.334 | 0.693 | 0.768 | 0.508 | 0.338 | 0.308 | 1.01 | 0.963 | 0.963 | 1.07 | 1 | 0.303 | 0.355 | 0.352 | 0.382 | 0.417
19 | NCI-H2023 | 0.549 | 0.47 | 0.45 | 0.424 | 0.217 | 0.492 | 0.448 | 0.419 | 0.447 | 0.294 | 1.09 | 0.903 | 0.268 | 0.958 | 1.04 | 0.245 | 0.215 | 0.193 | 0.229 | 0.245
20 | NCI-H2085 | 0.812 | 0.688 | 0.607 | 0.728 | 0.737 | 0.766 | 0.659 | 0.558 | 0.638 | 0.615 | 0.993 | 1.07 | 0.995 | 1.07 | 1.04 | 0.523 | 0.494 | 0.559 | 0.491 | 0.525
21 | NCI-H2087 | 0.718 | 0.416 | 0.377 | 0.311 | 0.315 | 0.463 | 0.379 | 0.249 | 0.123 | 0.18 | 0.812 | 0.815 | 0.882 | 0.839 | 0.836 | 0.227 | 0.239 | 0.255 | 0.326 | 0.363
22 | NCI-H2126 | 0.617 | 0.613 | 0.422 | 0.546 | 0.454 | 0.801 | 0.822 | 0.742 | 0.753 | 0.615 | 1.19 | 1.15 | 1.09 | 1.16 | 1.12 | 0.631 | 0.585 | 0.569 | 0.536 | 0.508
23 | NCI-H2347 | 0.93 | 0.653 | 0.404 | 0.431 | 0.445 | 0.535 | 0.383 | 0.372 | 0.321 | 0.316 | 0.976 | 1.01 | 0.906 | 0.615 | 1 | 0.563 | 0.552 | 0.588 | 0.582 | 0.608
24 | NCI-H2405 | 0.577 | 0.486 | 0.382 | 0.362 | 0.349 | 0.859 | 0.799 | 0.83 | – | 0.53 | 0.997 | 0.874 | – | 0.892 | 1 | 0.739 | 0.676 | 0.653 | 0.725 | 0.734
25 | NCI-H3122 | 0.938 | 0.734 | 0.429 | 0.329 | 0.295 | 0.558 | 0.532 | 0.43 | 0.263 | 0.237 | 0.943 | 0.986 | 1 | 1.06 | 0.992 | 0.407 | 0.445 | 0.38 | 0.496 | 0.507
26 | PC-3 [JPC-3] | 0.98 | 0.854 | 0.854 | 0.797 | 0.624 | 1.12 | 0.927 | 0.982 | – | 0.699 | 0.7 | 0.893 | 0.804 | 0.838 | 0.761 | 0.863 | 0.777 | 0.863 | 0.786 | 0.812
27 | PC-14 | 0.996 | 0.89 | 0.787 | 0.59 | 0.434 | 0.282 | 0.225 | 0.216 | 0.222 | 0.106 | 0.826 | 0.831 | 0.981 | 0.898 | 0.991 | 0.218 | 0.209 | 0.178 | 0.23 | 0.226
28 | RERF-LC-KJ | 0.862 | 0.792 | 0.751 | 0.791 | 0.793 | 0.926 | 0.81 | 0.919 | 0.907 | 0.648 | 1.24 | 1.11 | 0.994 | 0.958 | 0.974 | 0.736 | 0.633 | 0.708 | 0.666 | 0.687
29 | SK-LU-1 | 1.18 | 0.965 | 0.888 | 0.778 | 0.443 | 0.429 | 0.364 | 0.406 | 0.311 | 0.274 | 0.806 | 0.892 | 0.908 | 0.858 | 1.39 | 0.484 | 0.499 | 0.578 | 0.617 | 0.6
30 | SW 1573 | 0.847 | 0.602 | 0.654 | 0.487 | 0.449 | 0.414 | 0.456 | 0.407 | 0.342 | 0.223 | 1.02 | 0.904 | 1.11 | 1.11 | 1 | 0.477 | 0.498 | 0.514 | 0.542 | 0.458
